This note sets out measurements from the supplement of paper PMC10290057.

Values joined by “and” are separate entries in the source; they are usually repeats but may differ in a detail not shown here. Identical values can stand only once. Counter-ions that a name gives are not always drawn.
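Also: Luminescence-based viability readout, five doses per compound, normalized against on-plate DMSO and empty-well controls, followed by dose-response curve fitting for every drug.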

For the assay, the system named is HCT116. The assay is described as follows: efficacy (fitted maximal change in viability relative to DMSO control); higher = less cytotoxic (negative = loss of viability). To be noted: 48 h.
As for `COC(=O)/C=C/C(=O)OC` [Dimethyl fumarate], the efficacy is -18.4%. The same measure for `COC1=CC=C(C=C1O)C/2=C/C(=O)C3=C(O2)C=C(O[C@@H]4O[C@H](CO[C@@H]5O[C@@H](C)[C@H](O)[C@@H](O)[C@H]5O)[C@@H](O)[C@H](O)[C@H]4O)C=C3O` [Diosmin]: -15.2%; for `CN(C)CCOC(c1ccccc1)c1ccccc1` [Diphenhydramine hydrochloride]: -12.9%; for `OCCN(CCO)c1nc(N2CCCCC2)c2nc(N(CCO)CCO)nc(N3CCCCC3)c2n1` [Dipyridamole]: -30.3%. For `CC(=O)O[C@@]12CO[C@@H]1C[C@H](O)[C@@]1(C)C(=O)[C@H](O)C3=C(C)[C@@H](OC(=O)[C@H](O)[C@@H](NC(=O)OC(C)(C)C)c4ccccc4)C[C@@](O)([C@@H](OC(=O)c4ccccc4)[C@H]21)C3(C)C` [Docetaxel] the value was -56.4%; for `CN(CCOc1ccc(N[S+](C)(=O)[O-])cc1)CCc1ccc(N[S+](C)(=O)[O-])cc1` [Dofetilide], -5.68%; for `NCCc1ccc(O)c(O)c1` [Dopamine hydrochloride], -16.8%.

Turning to `C[C@H](O)[C@H]1[C@@H]2[C@H](C)C(=C(\N2C1=O)C(O)=O)/S[C@@H]3CN[C@H](CN[S+](N)([O-])=O)C3` [Doripenem], the efficacy stood at 5.86%. For `CCN[C@H]1C[C@H](C)[S+](=O)([O-])c2sc([S+](N)(=O)[O-])cc21` [Dorzolamide hydrochloride] the value was -11%. For `Cn1c(=O)c2c(ncn2CC2OCCO2)n(C)c1=O` [Doxofylline] the value was -7.38%. On to `CC1C\2C(O)C3C(N(C)C)C(=O)\C(=C(O)/C3(O)C(=O)C2=C(O)/C4=C1C=CC=C4O)C(N)=O` (centres undefined) [Doxycycline], for which the efficacy was -26.7%. Consider `C[C@@H]1[C@H]\2[C@H](O)[C@H]3[C@H](N(C)C)\C(=C(C(N)=O)/C(=O)[C@@]3(O)\C(=C2C(=O)C4=C(O)C=CC=C14)O)O` [Doxycycline], for which the efficacy was 12.1%. Consider `C[C@]\12CCC(=O)\C=C1[C@@H]3C[C@@H]3[C@@H]4[C@@H]2CC[C@@]5(C)[C@H]4[C@@H]6C[C@@H]6[C@@]57CCC(=O)O7` [Drospirenone], for which the efficacy is -38.8%. The same measure for `C[C@]12CCC3[C@@H](CC[C@H]4NC(=O)\C=C/[C@]34C)[C@@H]1CC[C@@H]2C(=O)NC5=CC(=CC=C5C(F)(F)F)C(F)(F)F` (some centres undefined) [Dutasteride]: -20%; for `Cn1c(=O)c2c(ncn2CC(O)CO)n(C)c1=O` (centres undefined) [Dyphylline]: -13%; for `O=C1NNc2nc(CN3Cc4ccccc4C3)nc3cccc1c23` [E-7449]: -29.7%.

`COc1ccc([S+](=O)([O-])Nc2cc(-c3csc(C#N)c3)ccc2C)cc1` [EL-102]: the efficacy is -62%. Consider `CN1CCN(C(=O)[C@H]2[C@@H](C(=O)O)[C@H]3CC[C@@H]2O3)CC1` [EMPM], for which the efficacy was -12%. Regarding `C[C@@H](C1CC[C@@]2(O)C3=CC(=O)[C@@H]4C[C@@H](O)[C@@H](O)C[C@]4(C)[C@H]3CC[C@]12C)[C@H](O)CCC(C)(C)O` (some centres undefined) [Ecdysone], the efficacy is -17.9%. For `C\C1=N\N(C(=O)C1)C2=CC=CC=C2` [Edaravone] the value was -11.9%. For `Cc1cc(Oc2ccc3nc(COc4ccc(CC5SC(=O)NC5=O)cc4)n(C)c3c2)cc(C)c1N` (centres undefined) [Efatutazone] the value was -24.7%.

Turning to `O=C1Nc2ccc(Cl)cc2[C@@](C#CC2CC2)(C(F)(F)F)O1` [Efavirenz], the efficacy is -85.4%. For `NCCCC(N)(C(=O)O)C(F)F` (centres undefined) [Eflornithine Hydrochloride] the value was 19%; for `COc1cc2c(cc1OC)CN(CCc1ccc(NC(=O)c3cccc4c(=O)c5cccc(OC)c5[nH]c34)cc1)CC2` [Elacridar], -16.8%; for `COC1=C(F)C(=CC=C1)C/2=C(C)/N(CC3=C(F)C=CC=C3C(F)(F)F)C(=O)N(C[C@H](NCCCC(O)=O)C4=CC=CC=C4)C2=O` [Elagolix], -32.8% and -32.2%.

For `CN(NC(=O)CC(=O)NN(C)C(=S)c1ccccc1)C(=S)c1ccccc1` [Elesclomol (STA-4783)], the efficacy was -39.3%. For `CC1=NN(c2ccc(C)c(C)c2)C(=O)/C1=N/Nc1cccc(-c2cccc(C(=O)O)c2)c1O` [Eltrombopag olamine] the value was -17.2%. The same measure for `COC1=CC2=C(C=C1CC3=C(F)C(=CC=C3)Cl)C(=O)\C(=C/N2[C@H](CO)C(C)C)C(O)=O` [Elvitegravir]: -72.2%; for `Cc1cc(O)c2c(c1)C(=O)c1cc(O)cc(O)c1C2=O` [Emodin]: -31.9%; for `CCOC(=O)[C@H](CCc1ccccc1)N[C@@H](C)C(=O)N1CCC[C@H]1C(=O)O` [Enalapril maleate]: -15.7%. For `CC/C(=C(/c1ccc(O)cc1)c1ccc(OCCNC)cc1)c1ccccc1` [Endoxifen] the value was -71.8%; for `CC1(C)[C@@H](O)CC[C@@]2(C)[C@H]1CC[C@]3(C)[C@@H]2C(=O)\C=C/4[C@@H]5C[C@](C)(CC[C@]5(C)CC[C@@]34C)C(O)=O` [Enoxolone], -35.4%. Turning to `CNC(=O)c1ccc(N2C(=S)N(c3ccc(C#N)c(C(F)(F)F)c3)C(=O)C2(C)C)cc1F` [Enzalutamide], the efficacy was -37%. Consider `N[S+](=O)([O-])NCCNc1nonc1/C(=N/O)Nc1ccc(F)c(Br)c1` [Epacadostat], for which the efficacy was -25.2%. On to `CNC[C@H](O)c1ccc(O)c(O)c1` [Epinephrine], for which the efficacy was -17.8%. As for `COC(=O)[C@@H]1CC/2=C/C(=O)CC[C@]2(C)[C@@]34O[C@@H]3C[C@@]5(C)[C@@H](CC[C@@]56CCC(=O)O6)[C@H]14` [Eplerenone], the efficacy is -6.15%.

For `C/C(=C\c1csc(C)n1)[C@@H]1C[C@@H]2O[C@@H]2CCC[C@H](C)[C@H](O)[C@@H](C)C(=O)C(C)(C)[C@@H](O)CC(=O)O1` [Epothilone A], the efficacy was -68.2%. As for `O=C(O)CSCC(=O)NC1CCSC1=O` (centres undefined) [Erdosteine], the efficacy worked out at 9.04%. For `CC[C@H]1OC(=O)[C@H](C)[C@@H](O[C@H]2C[C@@](C)(OC)[C@@H](O)[C@H](C)O2)[C@H](C)[C@@H](O[C@@H]2O[C@H](C)C[C@H](N(C)C)[C@H]2O)[C@](C)(O)C[C@@H](C)C(=O)[C@H](C)[C@@H](O)[C@]1(C)O` [Erythromycin] the value was 23%; for `C[C@]12CC[C@@H]3c4ccc(O)cc4CC[C@H]3[C@@H]1[C@@H](O)[C@@H](O)[C@@H]2O` [Estetrol], -16.1%.

As for `C[C@]12CC[C@@H]3c4ccc(O)cc4CC[C@H]3[C@@H]1C[C@@H](O)[C@@H]2O` [Estriol], the efficacy was -52.3%. The same measure for `C[C@]12CCC3c4ccc(O)cc4CCC3C1CCC2=O` (some centres undefined) [Estrone]: -24.4%; for `C#C[C@]1(O)CC[C@H]2[C@@H]3CCc4cc(O)ccc4[C@H]3CC[C@@]21C` [Ethinylestradiol]: -54.2%. The same measure for `CCC1(C)CC(=O)NC1=O` (centres undefined) [Ethosuximide]: -10.2%. `Cc1ccc(-c2ncc(Cl)cc2-c2ccc([S+](C)(=O)[O-])cc2)cn1` [Etoricoxib]: the efficacy was -16.9%.

On to `CO[C@H]1C[C@@H]2CC[C@@H](C)[C@@](O)(O2)C(=O)C(=O)N2CCCC[C@H]2C(=O)O[C@H]([C@H](C)C[C@@H]2CC[C@@H](OCCO)[C@H](OC)C2)CC(=O)[C@H](C)/C=C(/C)[C@@H](O)[C@@H](OC)C(=O)[C@H](C)C[C@H](C)\C=C/C=C\C=C/1C` [Everolimus], for which the efficacy is -57.4%. For `CC(=O)N[C@H]1CSSC[C@@H](C(N)=O)NC(=O)[C@H](C(C)C)NC(=O)[C@H](C)NC(=O)[C@H](Cc2cnc[nH]2)NC1=O` [Exherin] the value was -8%; for `CCOC(=O)[C@@H](N)CCC(=O)N[C@@H](CSCc1ccccc1)C(=O)N[C@@H](C(=O)OCC)c1ccccc1` [Ezatiostat], -18.5%; for `O=C1[C@H](CC[C@H](O)c2ccc(F)cc2)[C@@H](c2ccc(O)cc2)N1c1ccc(F)cc1` [Ezetimibe], -48.2%. On to `CC[S+](=O)([O-])c1ccc2oc(-c3ccc4ccccc4c3)nc2c1` [Ezutromid], for which the efficacy is -24.2%. The same measure for `CCC(=O)N[C@H]1CC[C@H](C(=O)N(C)c2ccc(-c3nc4ccccc4o3)cc2)C1` [FASN BI]: -31.4%. Turning to `COC1=CC=CC=C1C2=CC=CC(=C2)C/3=C(O)/C4=CC(=C(Cl)C=C4NC3=O)C#N` [FASN MRK], the efficacy is -12.8%.

For `O=C(O)CNC(=O)c1nc(Cl)c2ccccc2c1O` [FG-2216], the efficacy was -7.52%. For `CC1(C)O[C@@H]2C[C@H]3[C@@H]4C[C@H](F)\C5=C\C(=O)\C=C/[C@]5(C)[C@H]4[C@@H](O)C[C@]3(C)[C@@]2(O1)C(=O)CO` [FLUNISOLIDE] the value was -18.4%; for `CCN1C(=O)\C(=C/C2=CN=C(NCCC3CCN(C)CC3)N=C12)C4=CC=C(C=C4Cl)C5=CN=CC(=N5)C` [FRAX-1036], -62.9%.

On to `N#Cc1ccc(C2CCCc3cncn32)cc1` (centres undefined) [Fadrozole], for which the efficacy was -10.8%.

As for `CC(=O)OCC(CCn1cnc2cnc(N)nc21)COC(C)=O` [Famciclovir], the efficacy was -14.2%.

As to `NC(=O)c1nc(F)cnc1O` [Favipiravir], the efficacy was -17.6%. For the compound `Cc1nc(-c2ccc(OCC(C)C)c(C#N)c2)sc1C(=O)O` [Febuxostat], the efficacy was determined as 3.94%. For `CN1CC(=O)\N=C1\NC(=O)NC2=CC(=CC=C2)Cl` [Fenobam] the value was 5.7%; for `CC(C)OC(=O)C(C)(C)Oc1ccc(C(=O)c2ccc(Cl)cc2)cc1` [Fenofibrate], -34.6%. For `Oc1ccc(C2CNCCc3c2cc(O)c(O)c3Cl)cc1` (centres undefined) [Fenoldopam] the value was -23.6%; for `CC(C)(C)NC(=O)[C@H]1CC[C@H]2[C@@H]3CC[C@H]4NC(=O)\C=C/[C@]4(C)[C@H]3CC[C@]12C` [Finasteride], -16.1%; for `OC1=CC2=C(C=C1)C(=O)\C(=C(O2)\C3=CC(=C(O)C=C3)O)O` [Fisetin], -56.3%.
